The source of these data is patent US6638972B2, “Chroman and benzofuran derivatives as 5-hydroxytryptamine-6 ligands” (Wyeth, priority 2001, dated 2003).

Series [1] concerns the target T1, human cloned 5-HT6 receptors (Homo sapiens, UniProt P50406).
T1 construct: expressed in transfected cells; host or cells: HeLa cells (membrane preparation)
As to the kind of experiment: 5-HT6 binding affinity ([3H]-LSD displacement, membranes of Hela cells expressing human cloned 5-HT6 receptors). The note with it: [3H]-LSD 3.0 nM, Hela cell membranes, 120 min at room temperature; read-out: 5-HT6 Binding Ki. The procedure:
The affinity of test compounds for the serotonin 5-T6 receptor is evaluated in the following manner. Cultured Hela cells expressing human cloned 5-HT6 receptors are harvested and centrifuged at low speed (1,000×g) for 10.0 min to remove the culture media. The harvested cells are suspended in half volume of fresh physiological phosphate buffered saline solution and recentrifuged at the same speed. This operation is repeated. The collected cells are then homogenized in ten volumes of 50 mM Tris.HCl (pH 7.4) and 0.5 mM EDTA. The homogenate is centrifuged at 40,000×g for 30.0 min and the precipitate is collected. The obtained pellet is resuspended in 10 volumes of Tris.HCl buffer and recentrifuged at the same speed. The final pellet is suspended in a small volume of Tris.HCl buffer and the tissue protein content is determined in aliquots of 10-25 μl volumes. Bovine Serum Albumin is used as the standard in the protein determination according to the method described in Lowry et al., J. Biol. Chem., 193:265 (1951). The volume of the suspended cell membranes is adjusted to give a tissue protein concentration of 1.0 mg/ml of suspension. The prepared membrane suspension (10 times concentrated) is aliquoted in 1.0 ml volumes and stored at −70° C. until used in subsequent binding experiments.
Binding experiments are performed in a 96 well microtiter plate format, in a total volume of 200 μl. […] The test compounds are added in 20.0 μl volume.
The reaction is allowed to proceed in the dark for 120 min at room temperature, at which time, the bound ligand-receptor complex is filtered off on a 96 well unifilter with a Packard Filtermate® 196 Harvester. The bound complex caught on the filter disk is allowed to air dry and the radioactivity is measured in a Packard TopCount® equipped with six photomultiplier detectors, after the addition of 40.0 μl Microscint®-20 scintillant to each shallow well. The unifilter plate is heat-sealed and counted in a PackardTopCount® with a tritium efficiency of 31.0%.
Binding in the presence of varying concentrations of test compound is expressed as a percentage of specific binding in the absence of test compound. The results are plotted as log % bound versus log concentration of test compound. […] A linear regression line of data points is plotted, from which the IC50 value is determined and the Ki value is determined based upon the following equation: […]
where L is the concentration of the radioactive ligand used and KD is the dissociation constant of the ligand for the receptor, both expressed in nM.

Molecules are shown by their SMILES.

T1 sequence (P50406 whole entry): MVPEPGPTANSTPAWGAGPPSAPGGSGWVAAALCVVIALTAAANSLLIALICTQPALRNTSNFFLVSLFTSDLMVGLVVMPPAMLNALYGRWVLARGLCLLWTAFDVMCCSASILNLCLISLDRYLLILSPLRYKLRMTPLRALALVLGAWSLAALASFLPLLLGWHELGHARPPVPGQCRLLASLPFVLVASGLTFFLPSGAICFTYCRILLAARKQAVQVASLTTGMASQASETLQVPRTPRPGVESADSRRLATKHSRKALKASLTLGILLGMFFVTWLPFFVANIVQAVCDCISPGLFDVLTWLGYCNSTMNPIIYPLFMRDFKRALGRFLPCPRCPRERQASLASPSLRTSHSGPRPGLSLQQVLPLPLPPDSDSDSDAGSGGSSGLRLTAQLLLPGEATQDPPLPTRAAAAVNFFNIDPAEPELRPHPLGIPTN

For orientation: Ki means the equilibrium dissociation constant of an inhibitor or competing ligand from its target. By melting point is commonly meant the temperature, or range, at which the solid turns liquid. In turn, `O=c1ccc2ccc(OCCCNCC3CCc4cc(Cl)c(OCc5ccccc5)cc4O3)cc2o1` (centres unmarked) [Example 36, 7-{3-[(7-benzyloxy-6-chloro-chroman-2-ylmethyl)-amino]-propoxy}-chromen-2-one] registered a melting point of 92 to 95 °C. For the same compound, the Ki in series [1] amounted to 43 nM.

`c1ccc(CNCc2cc3ccc(OCc4ccccc4)cc3o2)cc1` [Example 54, benzyl-(6-benzyloxy-benzofuran-2-ylmethyl)-amine]: the melting point was 198 to 200 °C. For the same compound, the inhibitory constant (Ki) in series [1] came out at 1350 nM.

In turn, `Clc1cccc(OCCCNCC2CCc3ccc(OCc4ccccc4)cc3O2)c1` (centres unmarked) [Example 34, (7-benzyloxy-chroman-2-ylmethyl)-[3-(3-chloro-phenoxy)-propyl]-amine] showed a melting point of 110 to 116 °C. In series [1], the inhibitory constant (Ki) was found to be 192 nM.

`OCCNC[C@H]1CCc2ccc(OCc3ccccc3)cc2O1` [Example 44] returned a melting point of 196 to 197 °C. Further, in series [1], the Ki amounted to 10 nM.
